In brackets after ≈: the same amount, converted by molar mass. Entries after “also recorded” stand apart in the source; their conditions may differ. Where two headings read alike, the source gives them in different places. Marks after values point to notes of the source that are not given here.
Experiments:
L. monocytogenes Scott A = experiment: Minimal inhibitory concentration (MIC) and minimal bactericidal concentration (MBC), 96-well plate broth assay; type: cell-based, Listeria monocytogenes; settings: for MBC: value in brackets
Description: All synthesized derivatives were stored in dry form at -20 °C and dissolved in DMSO at a final concentration of 4.096 mg/mL prior to their use in the MIC and MBC determination. Briefly, L. monocytogenes was cultivated in Brain […] Infusion (BHI) broth (Sigma, Italy) at 37 °C for 24 h under a shaking condition (200 rpm). After the growth, the cells were diluted in BHI to 0.2 OD 600 nm and then used for the 96-well plate inoculum. The concentrations tested ranged from 1 up to 512 μg/mL. The assay was carried out in triplicate in a 96-well plate, according to Mattio et al., 2019 [4].

WS1 fibroblast cells = experiment: Cytotoxicity, growth inhibition assay (MTS) on normal skin fibroblasts; type: cell-based, human; settings: for IC50: WS1 cells, 48 h exposure, MTS assay, mean ± SD of three independent experiments; for Selectivity: concentration with cytotoxic effects on WS1 relative to MIC against L. monocytogenes: WS1 IC50 (µM) compared with MIC (µM) on L. monocytogenes Scott A
Description: (§1) The normal human skin WS1 fibroblast cells (ATCC CRL-1502) were cultured in Eagle’s Minimum Essential Medium plus 10% fetal bovine serum at 37 °C and 5% CO2. Cytotoxic potency was assessed by a growth inhibition assay (CellTiter 96® AQueous One Solution Cell Proliferation Assay MTS, Promega). The cells were seeded in a 96-well plate, and 24 h later were exposed to the compounds (concentration range 1−200 μM). After 48 h of exposure, 20 μL of 3-(4,5-dimethylthiazol-2-yl)-5-(3-carboxymethoxyphenyl)-2-(4-sulfophenyl)-2H-tetrazolium salt was added to each well. The absorbance was measured using a FLUOstar OPTIMA plate reader (BMG Labtech GmbH, Offenburg, Germany) at 492 nm after 4 h of incubation at 37 °C in 5% CO2. The IC50 was defined as the drug concentration causing 50% cell growth inhibition, determined by the dose−response curves. Experiments were performed in triplicate.

[1] = as above; type: cell-based, human; settings: human, WS1 normal skin fibroblast cells; WS1 IC50 (µM) compared with MIC (µM) on L. monocytogenes Scott A; read-out: Selectivity: concentration with cytotoxic effects on WS1 relative to MIC against L. monocytogenes
Description: as §1

[2] = tested on: L. monocytogenes LMG 16,779; parameters: method as in PMID 26867522; settings: cited from earlier work
[3] = Listeria monocytogenes, 24 h, BHI broth, tested 1 up to 512 µg/mL, triplicate, read-out: MIC
[4] = Listeria monocytogenes, BHI broth, tested 1 up to 512 µg/mL, triplicate, read-out: MIC
[5] = Listeria monocytogenes, MIC as µM concentration, read-out: MIC
[6] = Listeria monocytogenes, tested 1 up to 512 µg/mL, triplicate, read-out: MBC
[7] = BHI broth, tested 1 up to 512 µg/mL, triplicate
[8] = MIC as µM concentration, read-out: MIC
[9] = tested 1 up to 512 µg/mL, triplicate

SMILES | MIC (L. monocytogenes Scott A; [3]) | MIC (L. monocytogenes Scott A; [4]) | MIC (L. monocytogenes Scott A; [5]) | MBC (L. monocytogenes Scott A; [6]) | IC50 (WS1 fibroblast cells; Homo sapiens, WS1, 48 h) | selectivity ratio at 48 h [1] | Antimicrobial activity, result in words (L. monocytogenes Scott A) | MIC (L. monocytogenes Scott A; [7]) | MIC (L. monocytogenes Scott A; [8]) | MBC (L. monocytogenes Scott A; [9]) | IC50 (WS1 fibroblast cells) | Selectivity: concentration with cytotoxic effects on WS1 relative to MIC against L. monocytogenes (WS1 fibroblast cells) | MIC ([2]; MIC as µM concentration) | MIC [2]
Oc1ccc(-c2oc3cc(O)ccc3c2-c2cc(O)cc(O)c2)cc1 [Compound 6] | 64 µg/mL | 64 µg/mL | 191 µM | > 512 µg/mL | 98.5 ± 2 µM | – | – | – | – | – | – | – | – | –
[H]/N=C(\N/C(=N/[H])NCCCCCCNC(=N)NC(=N)Nc1ccc(Cl)cc1)Nc1ccc(Cl)cc1 [Chlorhexidine, reference compound] | – | 8 µg/mL | 15.8 µM | 32 µg/mL (≈ 63.3 µM) | – | – | – | – | – | – | – | – | – | –
Oc1ccc(-c2oc3ccc(/C=C/c4cc(O)cc(O)c4)cc3c2-c2cc(O)cc(O)c2)cc1 [Compound 1, dehydro-δ-viniferin] | 2 µg/mL | 2 µg/mL | 4.42 µM | 16 µg/mL (≈ 35.4 µM) | 37 ± 1.4 µM | ~10 | – | – | – | – | – | – | – | –
COc1ccc(-c2oc3cc(OC)ccc3c2-c2cc(OC)cc(OC)c2)cc1 [Compound 11] | – | > 256 µg/mL | 656 µM | > 256 µg/mL | > 100 µM | – | inactive | – | – | – | – | – | – | –
Oc1ccc(/C=C/c2cc(O)cc3occ(-c4cc(O)cc(O)c4)c23)cc1 [Compound 8] | – | – | – | – | – | – | – | 64 µg/mL | 178 µM | > 512 µg/mL | 85 ± 4.6 µM | – | – | –
COc1cc(/C=C/c2ccc3oc(-c4ccc(O)cc4)cc3c2)cc(OC)c1 [Compound 9] | > 512 µg/mL | > 512 µg/mL | 1370 µM | > 512 µg/mL | 95 ± 2.3 µM | – | inactive | – | – | >512 (>512) µg/mL | – | – | – | –
Oc1ccc(/C=C/c2cc(O)cc3occ(-c4cc(O)cc(O)c4)c23)cc1 [Compound 7] | – | – | – | – | 45 ± 1.2 µM | – | – | 8 µg/mL | 23.2 µM | 64 µg/mL (≈ 178 µM) | – | two-fold higher; also recorded: at least two-times higher | – | –
Oc1ccc(-c2oc3ccccc3c2-c2cc(O)cc(O)c2)cc1 [Compound 3] | 16 µg/mL | 16 µg/mL | 50.3 µM | 64 µg/mL (≈ 201 µM) | 98.7 ± 1.8 µM | – | – | – | – | – | – | two-fold higher; also recorded: at least two-times higher | – | –
Oc1ccc(-c2cc3cc(/C=C/c4cc(O)cc(O)c4)ccc3o2)cc1 [Compound 4] | 256 µg/mL | 256 µg/mL | 743 µM | > 512 µg/mL | 97.8 ± 3 µM | – | completely inactive | – | – | – | – | – | – | –
COc1cc(/C=C/c2ccc(O)cc2)cc(OC)c1 [pterostilbene, reference compound] | 64 µg/mL | 64 µg/mL | 250 µM | 128 µg/mL (≈ 499 µM) | 57 ± 10 µM | – | – | – | – | – | – | – | – | –
COc1ccc(-c2cc3cc(/C=C/c4cc(OC)cc(OC)c4)ccc3o2)cc1 [Compound 10] | – | > 256 µg/mL | 662 µM | > 256 µg/mL | > 100 µM | – | inactive | – | – | – | – | – | – | –
Oc1ccc(/C=C/c2cc(O)cc3oc(-c4ccc(O)cc4)c(-c4cc(O)cc(O)c4)c23)cc1 [Compound 2, viniferifuran] | 16 µg/mL | 16 µg/mL | 35.4 µM | > 512 µg/mL | 33 ± 1.4 µM | – | – | – | – | – | – | – | – | –
Oc1ccc(/C=C/c2cc(O)cc(O)c2)cc1 [resveratrol] | – | – | – | – | > 200 µM | – | – | – | – | – | – | – | 876 µM (≈ 200 µg/mL) | 200 (-) ^c µg/mL
Oc1cc(O)cc(/C=C/c2ccc3occ(-c4cc(O)cc(O)c4)c3c2)c1 [Compound 5] | – | 16 µg/mL | 44.4 µM | 64 µg/mL (≈ 178 µM) | 96.8 ± 4.5 µM | – | – | – | – | – | – | two-fold higher; also recorded: at least two-times higher | – | –

From paper PMC7139904, “Structural Requirements of Benzofuran Derivatives Dehydro-δ- and Dehydro-ε-Viniferin for Antimicrobial Activity Against the Foodborne Pathogen Listeria monocytogenes” (International Journal of Molecular Sciences, 2020)
